These results are taken from patent publication US9718799B2, “3-aryl-4H-chromene-4-ones as antineoplastic agents for the treatment of cancer” (The University of Kentucky Research Foundation, priority 2015, dated 2017).

The subject of data set [1] is PC3 prostate cancer cells. The data set is described as follows: Cell proliferation assay in prostate cancer PC3 cells. Type of data set: cell-based. To be noted: for inhibition at 10 µM: Homo sapiens, PC-3. The protocol:
Cell Proliferation Assay:
PC3 prostate cancer cells were cultured in DMEM/F-12 HAM Mixture (Sigma D8437), 10% Fetal Bovine Serum (Atlanta Biological S11150). Before the treatment, 3.5×10^4 cells per well were split into 12-well plates. After 24 h, 10 μM of each compound was added to each well. DMSO was used as a control. This experiment was done in triplicate. Cell viability and number were analyzed using Vi-Cell XR Cell Viability Analyzer (Beckman Coulter).

Usually inhibition stands for how much of the control response was suppressed. As usually defined, the melting point is the temperature of the solid-liquid transition. The Inhibition is the drop in the measured response relative to a control, in per cent. High values mean a strong effect, low ones a weak effect.

On to `COc1ccc(-c2coc3cc(OC)c(CO)c(O)c3c2=O)cc1` [Isoflavonoid 8b, 5-Hydroxy-6-(hydroxymethyl)-7-methoxy-3-(4-methoxyphenyl)-4H-chromen-4-one], for which the melting point was 138 to 139 °C. In addition, at 10 µM the inhibition in data set [1] was 0%.
Regarding `COCc1c(O)ccc2c(=O)c(-c3ccc(OC)cc3)coc12` [Isoflavonoid 11d, 7-Hydroxy-8-(methoxymethyl)-3-(4-methoxyphenyl)-4H-chromen-4-one], the melting point was 167 to 169 °C (dec.). In data set [1], this molecule gave an inhibition at 10 µM of 34.9 ± 3.3%.
For `O=c1c(-c2ccc(Cl)cc2)coc2c3c(ccc12)OC1OCCC1C3` (stereo not drawn) [Isoflavonoid 20e, 3-(4-Chlorophenyl)-9,10,10a,11-tetrahydro-4H,7aH-furo[2,3-b]pyrano[2,3-f]chromen-4-one] the same measures were 194 to 195 °C and 63 ± 10%.
On to `CC1(C)CC(=O)C2=C(C1)Oc1ccc3c(=O)c(-c4ccc5c(c4)OCO5)coc3c1C2` [Isoflavonoid 22c, 3-(1,3-Benzodioxol-5-yl)-9,9-dimethyl-8,9,10,12-tetrahydro-4H,11H-pyrano[2,3-a]xanthene-4,11-dione], for which the melting point lay in the range of 258 to 260 °C.
`COc1ccc(-c2coc3c(CO)c(OC)cc(O)c3c2=O)cc1` [Isoflavonoid 9b, 5-Hydroxy-8-(hydroxymethyl)-7-methoxy-3-(4-methoxyphenyl)-4H-chromen-4-one] had a melting point of 139 to 141 °C. In data set [1], this molecule showed an inhibition at 10 µM of 79.5 ± 3.6%.
For the molecule “3-(4-Methoxyphenyl)-2,11-methyl-6a,7,8,9a-tetrahydro-4H,6H-furo[2,3-b]pyrano[3,2-g]chromen-4-one [Isoflavonoid 25g]”, the “Inhibition at 10 μM (%)” value in data set [1] (Table 3, Diels-Alder adducts, inhibition of proliferation, PC3 cells, 10 μM) worked out at 61 ± 2%.
`COc1ccc(-c2coc3c4c(ccc3c2=O)OC2OCCC2C4)cc1OC` (stereo not drawn) [Isoflavonoid 20b, 3-(3,4-Dimethoxyphenyl)-9,10,10a,11-tetrahydro-4H,7aH-furo[2,3-b]pyrano[2,3-f]chromen-4-one] returned a melting point of 193 to 195 °C.
As for `Cc1oc2c3c(ccc2c(=O)c1-c1ccccc1)OC1=C(C3)C(=O)CC(C)(C)C1` [Isoflavonoid 22f, 2,9,9-trimethyl-3-phenyl-8,9,10,12-tetrahydro-4H,11H-pyrano[2,3-a]xanthene-4,11-dione], the melting point is 265 to 266 °C.
On the same count and under the same terms, the figure for `Cc1oc2c3c(ccc2c(=O)c1-c1ccccc1)OC1OCCC1C3` (stereo not drawn) [Isoflavonoid 20f, 2-Methyl-3-phenyl-9,10,10a,11-tetrahydro-4H,7aH-furo[2,3-b]pyrano[2,3-f]chromen-4-one] is 181 to 182 °C; for `COc1ccc(-c2c(C)oc3c4c(ccc3c2=O)OC2OCCC2C4)cc1` (stereo not drawn) [Isoflavonoid 20g, 3-(4-Methoxyphenyl)-2-methyl-9,10,10a,11-tetrahydro-4H,7aH-furo[2,3-b]pyrano[2,3-f]chromen-4-one] it is 227 to 229 °C.
For `COc1ccccc1-c1coc2c(CO)c(O)ccc2c1=O` [Isoflavonoid 9c, 7-Hydroxy-8-(hydroxymethyl)-3-(2-methoxyphenyl)-4H-chromen-4-one], the melting point was in the range of 163 to 165 °C. Further, in data set [1], 10 µM produced 0% inhibition.
For the molecule `COc1ccc(-c2c(C)oc3c(CO)c(O)ccc3c2=O)cc1` [Isoflavonoid 9e, 7-Hydroxy-8-(hydroxymethyl)-3-(4-methoxyphenyl)-2-methyl-4H-chromen-4-one], the melting point is 212 to 214 °C (dec.). In data set [1], this molecule showed an inhibition at 10 µM of 99.5 ± 0.5%.
In the same order, the values of `COc1ccc(-c2coc3c4c(ccc3c2=O)OC2OCCCC2C4)cc1` (stereo not drawn) [Isoflavonoid 21a, 3-(4-Methoxyphenyl)-10,11,11a,12-tetrahydro-4H,7aH,9H-dipyrano[2,3-b:2′,3′-f]chromen-4-one] are 182 to 183 °C and 73 ± 6%.
Take `Cc1oc2c3c(ccc2c(=O)c1-c1ccc(Cl)cc1)OC1OCCC1C3` (stereo not drawn) [Isoflavonoid 20i, 3-(4-Chlorophenyl)-2-methyl-9,10,10a,11-tetrahydro-4H,7aH-furo[2,3-b]pyrano[2,3-f]chromen-4-one]: the melting point lay in the range of 266 to 268 °C.
`COc1ccccc1-c1coc2cc(OC)c(CO)c(O)c2c1=O` [Isoflavonoid 8a, 5-Hydroxy-6-(hydroxymethyl)-7-methoxy-3-(2-methoxyphenyl)-4H-chromen-4-one] returned a melting point of 100 to 101 °C. In addition, 10 µM produced 14.6 ± 3.2% inhibition in data set [1].
With `COc1ccccc1-c1coc2cc(OC)c(COC(C)=O)c(OC(C)=O)c2c1=O` [Isoflavonoid 6a, 5-Acetoxy-6-(acetoxymethyl)-7-methoxy-3-(2-methoxyphenyl)-4H-chromen-4-one], 10 µM produced 17.1 ± 5.9% inhibition in data set [1].
In the case of `COc1ccc(-c2c(C)oc3c(CC4CCCC4=O)c(O)ccc3c2=O)cc1` (stereo not drawn) [Isoflavonoid 23g, 7-Hydroxy-3-(4-methoxyphenyl)-2-methyl-8-[(2-oxocyclopentyl)methyl]-4H-chromen-4-one], the melting point lay in the range of 210 to 211 °C.
As to `COc1ccc(-c2c(C)oc3c(C)c4c(cc3c2=O)CC2=C(CC(C)(C)CC2=O)O4)cc1` [Isoflavonoid 26g, 3-(4-Methoxyphenyl)-2,9,9,12-tetramethyl-6,8,9,10-tetrahydro-4H,7H-pyrano[3,2-b]xanthene-4,7-dione], the melting point is 270 to 272 °C.
For `COc1ccc(-c2coc3c4c(ccc3c2=O)OC2=C(C4)C(=O)CC(C)(C)C2)cc1` [Isoflavonoid 22a, 3-(4-Methoxyphenyl)-9,9-dimethyl-8,9,10,12-tetrahydro-4H,11H-pyrano[2,3-a]xanthene-4,11-dione], the melting point lay within 223 to 225 °C.
Still for that read-out and setting: the figure for `COc1ccc(-c2c(C)oc3c4c(ccc3c2=O)OC2OCCC2C4)cc1OC` (stereo not drawn) [Isoflavonoid 20h, 3-(3,4-Dimethoxyphenyl)-2-methyl-9,10,10a,11-tetrahydro-4H,7aH-furo[2,3-b]pyrano[2,3-f]chromen-4-one] is 217 to 219 °C; for `COc1ccc(-c2c(C)oc3c4c(ccc3c2=O)OC2(O)CCCCC2C4)cc1OC` (stereo not drawn) [Isoflavonoid 24h, 3-(3,4-Dimethoxyphenyl)-7a-hydroxy-2-methyl-8,9,10,11,11a,12-hexahydro-4H,7aH-pyrano[2,3-a]xanthen-4-one] it is 193 to 194 °C; for `COc1ccc(-c2c(C)oc3c4c(ccc3c2=O)OC2=C(C4)C(=O)CC(C)(C)C2)cc1` [Isoflavonoid 22g, 3-(4-Methoxyphenyl)-2,9,9-trimethyl-8,9,10,12-tetrahydro 4H,11H-pyrano[2,3-a]xanthene-4,11-dione] it is 236 to 237 °C.
Molecule `COc1ccc(-c2coc3cc(OC)c(COC(C)=O)c(OC(C)=O)c3c2=O)cc1` [Isoflavonoid 6b, 5-Acetoxy-6-(acetoxymethyl)-7-methoxy-3-(4-methoxyphenyl)-4H-chromen-4-one] had an inhibition at 10 µM in data set [1] of 51.7 ± 5.7%.
In turn, `COc1ccc(-c2coc3c(C)c(OC(C)=O)c(COC(C)=O)cc3c2=O)cc1` [Isoflavonoid 6c, [7-(Acetyloxy)-3-(4-methoxyphenyl)-8-methyl-4-oxo-4H-chromen-6-yl]methyl acetate] returned a melting point of 136 to 138 °C.
On to `COc1ccccc1-c1coc2c(COC(C)=O)c(OC(C)=O)ccc2c1=O` [Isoflavonoid 7c, 7-(Acetoxy)-8-(acetoxymethyl)-3-(2-methoxyphenyl)-4H-chromen-4-one], for which, in data set [1], the inhibition at 10 µM was 20.6 ± 3.8%.
Molecule `O=c1c(-c2ccc3c(c2)OCO3)coc2c3c(ccc12)OC1(O)CCCCC1C3` (stereo not drawn) [Isoflavonoid 24c, 3-(1,3-Benzodioxol-5-yl)-7a-hydroxy-8,9,10,11,11a,12-hexahydro-4H,7aH-pyrano[2,3-a]xanthen-4-one] had a melting point of 197 °C.
For the molecule `COCc1c(O)ccc2c(=O)c(-c3ccc(OC)cc3)c(C)oc12` [Isoflavonoid 11e, 7-Hydroxy-8-(methoxymethyl)-3-(4-methoxyphenyl)-2-methyl-4H-chromen-4-one], the melting point is 215 to 217 °C (dec.).
The molecule `O=c1c(-c2ccc3c(c2)OCCO3)coc2c3c(ccc12)OC1OCCC1C3` (stereo not drawn) [Isoflavonoid 20d, 3-(2,3-Dihydro-1,4-benzodioxin-6-yl)-9,10,10a,11-tetrahydro-4H,7aH-furo[2,3-b]pyrano[2,3-f]chromen-4-one] showed a melting point of 188 to 189 °C.
The same measure, in the same setting: in the case of `COCc1cc2c(=O)c(-c3ccc(OC)cc3)coc2c(C)c1O` [Isoflavonoid 10c, 7-Hydroxy-6-(methoxymethyl)-3-(4-methoxyphenyl)-8-methyl-4H-chromen-4-one] it was 143 to 145 °C; in that of `COc1ccc(-c2c(C)oc3c(CC4CCCC4=O)c(O)ccc3c2=O)cc1OC` (stereo not drawn) [Isoflavonoid 23h, 3-(3,4-Dimethoxyphenyl)-7-hydroxy-2-methyl-8-[(2-oxocyclopentyl)methyl]-4H-chromen-4-one], 88 to 90 °C.
For `COc1ccc(-c2coc3c(C)c4c(cc3c2=O)CC2=C(CC(C)(C)CC2=O)O4)cc1` [Isoflavonoid 26a, 3-(4-Methoxyphenyl)-9,9,12-trimethyl-6,8,9,10-tetrahydro-4H,7H-pyrano[3,2-b]xanthene-4,7-dione], the melting point lay in the range of 230 to 232 °C.
With `Cc1oc2c3c(ccc2c(=O)c1-c1ccccc1)OC1OCCCC1C3` (stereo not drawn) [Isoflavonoid 21f, 2-Methyl-3-phenyl-10,11,11a,12-tetrahydro-4H,7aH,9H-dipyrano[2,3-b:2′,3′-f]chromen-4-one], the melting point was in the range of 165 to 167 °C.
Turning to `COc1ccc(-c2coc3c(COC(C)=O)c(OC)cc(OC(C)=O)c3c2=O)cc1` [Isoflavonoid 7b, 5-Acetoxy-8-(acetoxymethyl)-7-methoxy-3-(4-methoxyphenyl)-4H-chromen-4-one], the inhibition at 10 µM in data set [1] worked out at 20.2 ± 2%.
The molecule `COc1ccc(-c2coc3c(C)c(O)c(CO)cc3c2=O)cc1` [Isoflavonoid 8c, 7-Hydroxy-6-(hydroxymethyl)-3-(4-methoxyphenyl)-8-methyl-4H-chromen-4-one] gave a melting point of 153 to 155 °C.
